Data published in patent US8912141B2, “Treatment of hepatitis C virus” (Panmed Ltd., priority 2011, dated 2014).
“Also recorded” adds a separate entry of the source. Like-named read-outs stand apart in the source and are kept apart here.

Tests used:
HCV replicon = HCV replicon antiviral assay in Huh7 cells, HCV RNA by RT-PCR, 72 hours; combinations analysed by Prichard-Shipman / Bliss independence; type: cell-based, hepatitis C virus
Protocol: Huh7 cells were maintained at 37° C., in an atmosphere of 5% CO2, in DMEM (Dulbecco's modified Eagle medium) supplemented with 2 mM L-glutamine, non-essential amino acids (NEAA), 10% fetal bovine serum (FBS) and […] geneticin. Cells were sub-divided at a 1:3 or 1:4 ratio every 2-3 days. 24 hours prior to the assay, Huh7 cells were collected, counted, plated in 96-well plates at 7,500 cells/well in […] standard maintenance medium, and incubated in the conditions above. To initiate the assay, culture medium was removed, and cells were washed once with PBS (phosphate buffer saline). For control compounds only, […] assay medium (DMEM with L-glutamine, NEAA, and 10% FBS) was added.
Test compounds were prepared as a 10× stock in assay medium. Serial dilutions of compounds in assay medium were added in a total volume of […] and the plates were then rocked to mix, and incubated as described above for 72 hours.
HCV RNA levels were measured using TaqMan® RT-PCR. Total cellular RNA was isolated and amplified by using a RealTime HCV assay (m1000™ Automated Sample Preparation System and M2000rt™ instrument for reverse transcription, PCR amplification, and detection/quantitation, Abbott Molecular Inc.), which detects and quantitates HCV genotypes 1-6. The molecular genotyping method targets the 5′-untranslated (UTR) region of the virus genome and is based on an amplification of the viral genome. […] A negative control, low positive control and high positive control were also introduced. Results are reported in International Units per ml (IU/ml), and 1 IU/ml=4.3 copies/ml. […]
The effects of drug combinations were evaluated according to the method described by Prichard & Shipman [Antiviral Res 1990, 14:181-205]. The theoretical additive effect was calculated from the dose-response curves of individual compounds by the equation Z=X+Y(1−X) (an equation referred to in the art as a Bliss independence model), where X and Y represent the inhibition produced by the individual compounds and Z represents the theoretical effect produced by the combination of compounds. […]

various proteases = assay: Protease inhibition; type: biochemical
[1] = cited from earlier work

Compound: C=C[C@@H]1C[C@]1(NC(=O)[C@@H]1C[C@@H](OC(=O)N2Cc3cccc(F)c3C2)CN1C(=O)[C@@H](NC(=O)OC(C)(C)C)C(C)(C)C)C(=O)NS(=O)(=O)C1CC1 [GNS-227]
- antiviral activity towards HCV (HCV replicon): an antiviral activity towards HCV
- GNS-227 concentration at which synergy was best achieved (HCV replicon; in combination with HCQ): about 3.7 nM
- protease inhibition activity (various proteases): exhibit inhibition activity on various proteases; also recorded: exhibit a protease inhibition activity

Compound: CCN(CCO)CCCC(C)Nc1ccnc2cc(Cl)ccc12 (centres unmarked) [HCQ, 2-[[4-[(7-chloro-4-quinolinyl)amino]pentyl]ethylamino]ethanol]
- HCQ concentration at which synergy was best achieved (HCV replicon; in combination with GNS-227): about 6 μM
- toxicity relative to chloroquine ([1]; in vivo): less toxic
- toxicity relative to chloroquine ([1]; in vivo, listed as hydroxychloroquine): one-half as toxic
- effectiveness relative to chloroquine ([1]; treating rheumatologic diseases): one-half to two-thirds as effective as chloroquine

Compound: CCN(CC)CCCC(C)Nc1ccnc2cc(Cl)ccc12 (centres unmarked) [chloroquine]
- retinotoxicity relative to hydroxychloroquine ([1]; in vivo): much more retinotoxic
